The values below come from article PMC3596469 (European journal of pharmaceutical sciences : official …, 2013).

Like-named read-outs stand apart in the source and are kept apart here. Where only a bound is given, the exact number is not on record here.

The conditions of data set [1]: mouse, in vivo, po, 1 mg/kg; cited from earlier work.
For data set [2] the following is noted: for blood levels at the lowest oral dose: oral 0.1 mg/kg, 24 h sampling; for oral bioavailability: from AUC values.
Data set [3] concerns LPS-induced release of inflammatory cytokines in plasma. As to the kind of experiment: Plasma cytokines in LPS-challenged murine model. Format: in vivo, Male Swiss Webster mice.
The test system of data set [4] is plasma epoxides and diols (biomarker of sEH action). Kind of data set: Plasma oxylipin profile. It is filed as in vivo, Male Swiss Webster mice.
Another data set has as its system LPS-challenged mice. As to the kind of experiment: Food intake and body weight in LPS-challenged murine model. Format: in vivo, Male Swiss Webster mice. The note with it: for animals' appetite, 1st day post LPS challenge: oral administration.
Data set [5] can be described thus: PK after i.v. injection in mice, 2-compartmental analysis. To be noted: i.v. 0.01 mg/kg.
A further data set deals with T1, Human sEH (Homo sapiens, UniProt P34913).
T1 sequence (P34913 1-555): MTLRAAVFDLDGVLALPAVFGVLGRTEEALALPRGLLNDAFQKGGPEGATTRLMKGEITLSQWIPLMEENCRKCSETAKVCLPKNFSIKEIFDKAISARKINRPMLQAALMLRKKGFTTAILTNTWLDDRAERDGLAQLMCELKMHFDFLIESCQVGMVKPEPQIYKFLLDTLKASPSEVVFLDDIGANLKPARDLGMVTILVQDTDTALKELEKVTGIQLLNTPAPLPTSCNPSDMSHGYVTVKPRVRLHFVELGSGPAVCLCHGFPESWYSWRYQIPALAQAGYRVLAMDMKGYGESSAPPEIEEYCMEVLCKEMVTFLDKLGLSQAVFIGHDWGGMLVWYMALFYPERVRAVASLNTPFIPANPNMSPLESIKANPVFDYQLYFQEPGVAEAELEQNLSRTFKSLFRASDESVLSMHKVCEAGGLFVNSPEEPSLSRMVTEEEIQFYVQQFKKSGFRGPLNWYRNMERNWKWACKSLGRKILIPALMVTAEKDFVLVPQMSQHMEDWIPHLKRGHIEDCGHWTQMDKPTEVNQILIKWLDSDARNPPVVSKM
Kind of data set: Radioactive sEH inhibition assay. It is filed as biochemical. The note with it: read-out: IC50 Human sEH (value in parentheses); [3H] t-DPPO as substrate.

The conditions of data set [6]: mouse, in vivo, po.
Setting [7] is: male, Swiss Webster, mouse, whole blood, po, 0.1 mg/kg.
[8] abbreviates: male, Swiss Webster, mouse, whole blood, po, 0.3 mg/kg.
[9] abbreviates: male, Swiss Webster, mouse, whole blood, po, 1 mg/kg.
The mark [10] stands for this setting: male, Swiss Webster, mouse, whole blood, po, 3 mg/kg.
Setting [11] is: LPS 3 mg/kg + inhibitor 3 mg/kg single dose, terminated 48 h.
[12] abbreviates: LPS 3 mg/kg + inhibitor 3 mg/kg, terminated 24 h.
The mark [13] stands for this setting: mice, oral gavage 0.1 mg/kg, blood.
Setting [14] is: mice, oral gavage 0.3 mg/kg, blood.
[15] abbreviates: mice, oral gavage 1.0 mg/kg, blood.
The mark [16] stands for this setting: mice, oral gavage 3.0 mg/kg, blood.

On to `CC(=O)N1CCC(NC(=O)NC23CC4CC(CC(C4)C2)C3)CC1` [APAU, 1-(1-acetypiperidin-4-yl)-3-adamantanylurea], for which, in data set [1], the AUCt is given as 1.4±0.3 0.35±0.15 uM•h and the MRT (in general, the average time that molecules of a dose stay in the body) is reported as 20±4.2 22.2±4.3 h.

For `CS(=O)(=O)N1CCC(NC(=O)Nc2ccc(OC(F)(F)F)cc2)CC1` [TUPS, 1-(1-methanesulfonyl-piperidin-4-yl)-3-(4-trifluoromethoxy-phenyl)-urea], the Cmax (in general, the highest concentration seen after dosing) in data set [2] (setting [7]) was below 0.4 nM; in data set [2] (setting [9]) it was 1650 nM; in data set [2] (setting [10]), 2860 nM. For the same compound, the results for the AUC(0-t) in data set [2] (setting [8]), in data set [2] (setting [9]) and in data set [2] (setting [10]) were 5.3 µM·h, 24.2 µM·h and 48.5 µM·h, respectively. The mean residence time MRT in data set [2] (setting [8]) turned out to be 21.5 h; in data set [2] (setting [9]), 17.4 h; in data set [2] (setting [10]), 22.7 h. For the same compound, the “blood levels at the lowest oral dose” value in data set [2] (mice) is reported as “under the respective detection limit”.

Take `CCC(=O)N1CCC(NC(=O)Nc2ccc(OC(F)(F)F)cc2)CC1` [TPPU, 1-(4-trifluoro-methoxy-phenyl)-3-(1-propionylpiperidin-4-yl)urea]: the IL-6 in plasma in data set [3] (setting [11]) stood at 9 ± 0.5 pg/mL; in data set [3] (setting [12]) it was 118 ± 65 pg/mL. For the same compound, the figures for the IL-10 in plasma in data set [3] (setting [11]) and in data set [3] (setting [12]) were 7.7 ± 0.5 pg/mL and 8.7 ± 0.4 pg/mL, respectively. In addition, the INF-γ in plasma amounted to 2.0 ± 0.5 pg/mL in data set [3] (setting [11]) and 9.7 ± 3.0 pg/mL in data set [3] (setting [12]). For the same compound, the MCP-1 in plasma stood at 260 ± 50 pg/mL in data set [3] (setting [11]) and 1970 ± 900 pg/mL in data set [3] (setting [12]). Also, the TNF-α in plasma in data set [3] (setting [11]) was found to be 11 ± 1 pg/mL; in data set [3] (setting [12]) it was 28 ± 14 pg/mL. Further, in data set [3] (LPS-challenged mice), the “reduction of cytokine or chemokine release one day after treatment” value is given as “Neither the administration of TPPU nor the t-AUCB treatment demonstrated a beneficial effect”. Moreover, in data set [4] (1- and 2-day post treatment, LPS-challenged mice), the “plasma levels of both EETs and EpOMEs” value is “significantly increased”. Further, the “plasma levels of both DHOMEs and DHETs” value in data set [4] (2-day post LPS treatment) is listed as “significantly decreased”. In addition, the “animal's appetite (pilot study)” value with LPS-challenged mice (1 mg/kg) is on record as “no favorable effect was observed”. Also, the “animal's appetite at 2 days post treatment (pilot study)” value in the data set with LPS-challenged mice (oral 3 mg·kg^-1) is “improved”. Further, the “animals' appetite, 1st day post LPS challenge” value in the data set on LPS-challenged mice (LPS-challenged mice) is “did not improve”. Besides, the “animals' appetite, 2nd day post LPS challenge” value in the data set with LPS-challenged mice (oral, TPPU 3 mg/kg once, t-AUCB 3 mg/kg twice, LPS-challenged mice) is on record as “significantly improved”. In data set [5], this compound gave an AUCt of 3.5 ± 0.4 µM·h. Also, the “Cl (clearance)” value in data set [5] came to 20 ± 1.7 mL/min/kg. In data set [5], the “T1/2β (half life of elimination phase)” value is reported as above 24 h. Also, the “Vdss (volume distribution at steady state)” value in data set [5] amounted to 4.8 ± 1.8 L/kg. For the same compound, the oral bioavailability in data set [2] (mice, oral 0.1 mg/kg vs i.v. 0.01 mg/kg) stood at 43 ± 25%; in data set [2] (mice, oral 0.3 mg/kg vs i.v. 0.01 mg/kg), 36 ± 5%; in data set [2] (mice, oral 1.0 mg/kg vs i.v. 0.01 mg/kg), 31 ± 2%; in data set [2] (mice, oral 3.0 mg/kg vs i.v. 0.01 mg/kg), 18 ± 3%. Moreover, the “blood levels at the lowest oral dose” value in data set [2] (mice) was “above their in vitro IC50 values throughout the sampling time”. For the same compound, the MRT in data set [2] (mice, oral gavage 0.1 mg/kg) amounted to 56.9 ± 5.4 h; in data set [2] (mice, oral gavage 0.3 mg/kg), 69.5 ± 2.2 h; in data set [2] (mice, oral gavage 1.0 mg/kg), 26.8 ± 2.2 h; in data set [2] (mice, oral gavage 3.0 mg/kg), 24.0 ± 0.2 h. The Tmax (usually the time at which the peak concentration occurs) in data set [2] (mice, oral gavage 0.1 mg/kg) is 2 ± 0 h; in data set [2] (mice, oral gavage 0.3 mg/kg), 2 ± 0 h; in data set [2] (mice, oral gavage 1.0 mg/kg), 2.7 ± 1.2 h; in data set [2] (mice, oral gavage 3.0 mg/kg), 3.7 ± 1.8 h. Moreover, the Cmax was 445 ± 200 nM in data set [2] (setting [13]), 1560 nM in data set [2] (setting [14]), 5370 nM in data set [2] (setting [15]) and 7100 nM in data set [2] (setting [16]).

For the compound `O=C(Nc1ccc(OC(F)(F)F)cc1)NC1CCN(C(=O)C2CC2)CC1` [TCPU, 1-(4-trifluoro-methoxy-phenyl)-3-(1-cyclopropanecarboxylpiperidin-4-yl)urea], the AUCt in data set [2] (mice, oral gavage 0.1 mg/kg) came out at 2.2 ± 1.1 µM·h; in data set [2] (mice, oral gavage 0.3 mg/kg), 16.6 ± 8.8 µM·h; in data set [2] (mice, oral gavage 1.0 mg/kg), 43.8 ± 5.1 µM·h; in data set [2] (mice, oral gavage 3.0 mg/kg), 94.3 ± 8.0 µM·h. In addition, the MRT in data set [2] (mice, oral gavage 0.1 mg/kg) was determined as 18.9 ± 6.6 h; in data set [2] (mice, oral gavage 0.3 mg/kg), 16.9 ± 5.4 h; in data set [2] (mice, oral gavage 1.0 mg/kg), 24.0 ± 1.8 h; in data set [2] (mice, oral gavage 3.0 mg/kg), 32.1 ± 5.6 h. For the same compound, the Tmax in data set [2] (mice, oral gavage 0.1 mg/kg) amounted to 5.3 ± 1.2 h; in data set [2] (mice, oral gavage 1.0 mg/kg) it was 3.2 ± 2.2 h; in data set [2] (mice, oral gavage 3.0 mg/kg), 3.9 ± 2.5 h. Moreover, the Cmax in data set [2] (setting [13]) is 270 ± 120 nM; in data set [2] (setting [14]), 1680 nM; in data set [2] (setting [15]), 2560 nM; in data set [2] (setting [16]), 5160 nM.

For the compound “1-chlorophenyl-3-(1-propionylpiperidin-4-yl)urea [CPPU]”, on Human sEH, the IC50 – broadly, the point on the concentration scale where inhibition reaches its midpoint – worked out at 280 nM. The AUCt in data set [6] (0.1 mg/kg) came to 2.3 ± 0.4 µM·h; in data set [6] (0.3 mg/kg) it was 6.1 ± 1.7 µM·h; in data set [6] (1 mg/kg), 31.7 ± 18.4 µM·h; in data set [6] (3 mg/kg), 140 ± 93 µM·h. In addition, the MRT in data set [6] (0.1 mg/kg) was 13.1 ± 13.5 h; in data set [6] (0.3 mg/kg), 16.4 ± 6.3 h; in data set [6] (1 mg/kg) it was 17.2 ± 7.3 h; in data set [6] (3 mg/kg), 17.1 ± 1.3 h.

`O=C(Nc1ccc(OC(F)(F)F)cc1)N[C@H]1CC[C@H](Oc2ccc(C(=O)O)cc2)CC1` [t-TUCB, trans-4-[4-[3-(4-Trifluoromethoxy-phenyl)-Ureido]-cyclohexyloxy]-Benzoic acid] displayed a Cmax in data set [2] (setting [7]) below 0.4 nM. For the same compound, in data set [2] (setting [8]), the AUC(0-t) (as a rule, exposure summed from dosing to a finite time, without extrapolation to infinity) is 0.4 µM·h; the highest level (Cmax) was 45 nM; the MRT is 12.6 h; the Tmax was 6 h. Moreover, in data set [2] (setting [9]), the AUC(0-t) stood at 4.5 µM·h, the Cmax was found to be 410 nM, the MRT stood at 12.6 h and the Tmax stood at 5.9 h. In addition, in data set [2] (setting [10]), the AUC(0-t) was determined as 16.1 µM·h, the Cmax is 2120 nM, the MRT was 8 h and the Tmax worked out at 2.6 h. In addition, in data set [2] (mice), the “blood levels at the lowest oral dose” value was “under the respective detection limit”.

Turning to `O=C(NC12CC3CC(CC(C3)C1)C2)N[C@H]1CC[C@H](Oc2ccc(C(=O)O)cc2)CC1` [t-AUCB, trans-4-[4-(3-adamantan-1-yl-ureido)-cyclohexyloxy]-benzoic acid, reference compound], the “animals' appetite, 1st day post LPS challenge” value in the data set with LPS-challenged mice (LPS-challenged mice) is on record as “did not improve”.
